According to patent US20240261440A1, “COMPOSITIONS, METHODS AND USES FOR TREATING CYSTIC FIBROSIS AND RELATED DISORDERS” (The Board of Regents of The University of Texas System, priority 0001, published 2024):

Test system: C57BL/6 mice
Experiment: In vivo Luc mRNA delivery (IVIS luminescence imaging)
Parameters: species or system mouse
Details: 0.1 mg kg-1 Luc mRNA, i.v., 6h; 20% to 50% cationic lipid
Description: C57BL/6 mice with weight at around 20 g were i.v. injected with various Luc mRNA formulations (0.1 mg kg^−1 of Luc mRNA, n=3 per group). After 6 hours, these mice were injected with D-Luciferin (150 mg kg^−1, intraperitoneal) and imaged immediately using an IVIS Lumina system (Perkin Elmer). Afterwards, these mice were killed, and tissues were excised for ex vivo imaging using IVIS Lumina system.

CCCCCCCC/C=C\CCCCCCCC(=O)OCC(C[N+](C)(C)C)OC(=O)CCCCCCC/C=C\CCCCCCCC (stereo not shown) [DOTAP, 1,2-dioleoyl-3-trimethylammonium-propane]
luciferase expression in mouse lungs, permanently cationic lipid screen in mDLNP-2: higher luminescence activity than others
